Each compound was assayed on HT1080 cells (ATCC, cat #CCL-121) (assay: HT1080 CellTiter-Glo 2.0 IC50 assay of working examples). Conditions: HT-1080, 24 hrs, cells plated with and without 1.5 μM ferrostatin-1, table does not say which, Table 7.
Format: cell-based
Method: Biological evaluation of working examples A1-A47 and B1-B28 was performed in HT1080 cells (ATCC, cat #CCL-121) according to the procedure provided below.
• 1.1 Cells were harvested from flask into cell culture medium and then the cell number count was determined. • 1.2 The cells were suspended with 1.5 μM ferrostatin-1 and without ferrostatin-1. • 1.3 Cells were plated at a density of 1,500 cells per well in a 384-well black sided clear bottom plate, in 25 μL, using electronic multichannel pipette. • 1.4 Plates were covered with lid and spun for 1 min at 1000 rpm, then allowed to incubate overnight at 37° C. under 5% CO2.
• 2.1 Compounds were dissolved at 10 mM stock solution and 10 μl of diluted solution was transferred to a 384 LDV-plate (LABCYTE, LP-0200). A 3 fold, 11-point dilution was performed. • 2.2 Cells were treated with compounds by plate reformat Echo software and spun for 1 min at 1000 rpm. Then incubated at 37° C. for 24 hrs in a CO2 incubator.
• 3.1 The plates were removed from the incubator and allowed to equilibrate to room temperature, at least 30 minutes. • 3.2 CellTiter-Glo® 2.0 Reagent (Promega, G9242) was added (25 μL) to the assay plates and spun for 1 min at 1000 rpm. Then allowed to stand for about 20 minutes before reading luminescence signal on Envision. • 3.3 The IC50 calculations were determined with a nonlinear fit, variable slope (four parameters) log(inhibitor) vs. response model using GraphPad PRISM.

IC50 [µM]	SMILES
0.1 to 1	Cc1c(Cl)ccc(N(Cc2ccc(F)cc2)C(=O)CCl)c1Cl [Compound A42, 2-chloro-N-(2,4-dichloro-3-methyl-phenyl)-N-[(4-fluorophenyl)methyl]acetamide]
0.01 to 0.1	COc1cc(N(Cc2ccc(F)cc2)C(=O)CCl)ccc1C [Compound A29, 2-chloro-N-[(4-fluorophenyl)methyl]-N-(3-methoxy-4-methyl-phenyl)acetamide]
1 to 10	COc1cccc(F)c1N(Cc1ccc(F)cc1)C(=O)CCl [Compound A32, 2-chloro-N-(2-fluoro-6-methoxy-phenyl)-N-[(4-fluorophenyl)methyl]acetamide]
0.1 to 1	COc1ccc(N(Cc2ccc(F)cc2)C(=O)CCl)cc1Cl [Compound A17, 2-chloro-N-(3-chloro-4-methoxy-phenyl)-N-[(4-fluorophenyl)methyl]acetamide]
0.01 to 0.1	COc1cc(OC)cc(N(Cc2cccc(C(F)(F)F)c2F)C(=O)CCl)c1 [Compound A31, 2-chloro-N-(3,5-dimethoxyphenyl)-N-[[2-fluoro-3-(trifluoro-methyl)phenyl]methyl]acetamide]
0.1 to 1	COc1cccc(N(Cc2ccc(F)cc2)C(=O)CCl)c1Cl [Compound A35, 2-chloro-N-(2-chloro-3-methoxy-phenyl)-N-[(4-fluorophenyl)methyl]acetamide]
0.1 to 1	COc1cc(C)cc(N(Cc2ccc(F)cc2)C(=O)CCl)c1 [Compound A25, 2-chloro-N-[(4-fluorophenyl)methyl]-N-(3-methoxy-5-methyl-phenyl)acetamide]
≤ 0.01	COc1cc(OC)cc(N(Cc2ccc(F)c(OC)c2)C(=O)CCl)c1 [Compound A33, 2-chloro-N-(3,5-dimethoxyphenyl)-N-[(4-fluoro-3-methoxy-phenyl)methyl]acetamide]
0.01 to 0.1	COc1ccc(CN(C(=O)CCl)c2cc(C)cc(C)c2)cc1 [Compound A2, 2-chloro-N-(3,5-dimethylphenyl)-N-[(4-methoxyphenyl)methyl]acetamide]
0.01 to 0.1	COc1cc(OC)cc(N(Cc2cc(C)cc(F)c2)C(=O)CCl)c1 [Compound A44, 2-chloro-N-(3,5-dimethoxyphenyl)-N-[(3-fluoro-5-methyl-phenyl)methyl]acetamide]
≤ 0.01	COc1cc(OC)cc(N(Cc2ccc(Br)c(F)c2F)C(=O)CCl)c1 [Compound A38, N-[(4-bromo-2,3-difluoro-phenyl)methyl]-2-chloro-N-(3,5-dimethoxyphenyl)acetamide]

Same assay, conditions: HT-1080, 24 hrs, cells plated with and without 1.5 μM ferrostatin-1, table does not say which, Table 8

IC50 [µM]	SMILES
> 10	CC#CC(=O)N(c1cc(C)cc(C)c1)c1nc(-c2ccc(Br)cc2)cs1 [Compound B8, N-[4-(4-bromophenyl)thiazol-2-yl]-N-(3,5-dimethylphenyl)but-2-ynamide]
> 10	O=C(CCl)N(c1ccccc1)c1nc(-c2ccc(Br)cc2)cs1 [Compound B15, N-[4-(4-bromophenyl)thiazol-2-yl]-2-chloro-N-phenyl-acetamide]
> 10	Cc1cc(C)cc(N(C(=O)C2CO2)c2nc(-c3ccc(Br)cc3)cs2)c1 (stereo not drawn) [Compound B28, N-[4-(4-bromophenyl)thiazol-2-yl]-N-(3,5-dimethylphenyl)oxirane-2-carboxamide]
> 10	Cc1cccc(N(C(=O)CCl)c2nc(-c3ccc(Br)cc3)cs2)c1 [Compound B16, N-[4-(4-bromophenyl)thiazol-2-yl]-2-chloro-N-(m-tolyl)acetamide]
1 to 10	O=C(CCl)N(Cc1ccccc1)c1nc(-c2ccc(Br)cc2)cs1 [Compound B14, N-benzyl-N-[4-(4-bromophenyl)thiazol-2-yl]-2-chloro-acetamide]
> 10	O=C(CCl)N(c1cc(F)cc(F)c1)c1nc(-c2ccc(Br)cc2)cs1 [Compound B25, N-[4-(4-bromophenyl)thiazol-2-yl]-2-chloro-N-(3,5-difluorophenyl)acetamide]

SMILES	IC50 [µM]
Cc1cc(C)cc(N(C(=O)CF)c2nc(-c3ccc(Br)cc3)cs2)c1 [Compound B27, N-[4-(4-bromophenyl)thiazol-2-yl]-N-(3,5-dimethylphenyl)-2-fluoro-acetamide]	> 10

From patent US20240315994A1, “SMALL MOLECULE MODULATORS OF FERROPTOSIS” (ARPEGGIO BIOSCIENCES, INC., priority 2021, published 2024)
